# Experimental data published in ChEMBL document CHEMBL4130616, “Bastimolide B, an Antimalarial 24-Membered Marine Macrolide Possessing a tert-Butyl Group” (J Nat Prod, 2018).
# System: Plasmodium falciparum
# Assay: Antimalarial activity against chloroquine-sensitive Plasmodium falciparum HB3 by pico-green dye based fluorescence assay
# Assay type: functional, organism-based
# Settings: not given
row,IC50 [µM],SMILES
1,1.4,C/C1=C/C(=O)O[C@H](C(C)(C)C)CCC[C@H](O)CCC[C@H](O)CCC[C@H](O)CCC[C@@H](O)C[C@@H](O)C[C@H](O)CCC[C@@H](O)CCC[C@@H](O)C[C@@H](O)CCCCC1 [listing 1 of 2 here]

# Same assay, conditions: Plasmodium falciparum, HB3
row,IC50 [µM],SMILES
1,2.3,C/C1=C/C(=O)O[C@H](C(C)(C)C)CCC[C@H](O)CCC[C@H](O)CCC[C@H](O)CCC[C@@H](O)C[C@@H](O)C[C@H](O)CCC[C@@H](O)CCC[C@@H]2C[C@H](CCCCC1)OC(C)(C)O2
2,5.7,C/C1=C/C(=O)O[C@H](CCC[C@@H](O)CCC[C@@H](O)CCC[C@@H](O)CCC[C@H](O)C(C)(C)C)C[C@@H](O)C[C@H](O)CCC[C@@H](O)CCC[C@@H](O)C[C@@H](O)CCCCC1
3,9.7,C/C1=C/C(=O)O[C@H](C(C)(C)C)CCC[C@H](O)CCC[C@H](O)CCC[C@H](O)CCC[C@@H]2C[C@H](C[C@H](O)CCC[C@@H](O)CCC[C@@H]3C[C@H](CCCCC1)OC(C)(C)O3)OC(C)(C)O2
4,2.6,C/C1=C/C(=O)O[C@H](C(C)(C)C)CCC[C@H](O)CCC[C@H](O)CCC[C@H](O)CCC[C@@H](O)C[C@@H](O)C[C@H](O)CCC[C@@H](O)CCC[C@@H](O)C[C@@H](O)CCCCC1 [listing 2 of 2 here]
5,20,C/C1=C/C(=O)O[C@H](C(C)(C)C)CCC[C@H](O)CCC[C@H](O)CCC[C@H](O)CCC[C@@H]2C[C@H](C[C@H](O)CCC[C@@H](O)CCC[C@@H](O)C[C@@H](O)CCCCC1)OC(C)(C)O2
